This is an account of results in patent publication US10363239B2, “Method for inhibiting growth of cancer cells” (Pain Therapeutics, Inc., priority 2013, dated 2019).

For one assay, the target named is FLNA pentapeptide of SEQ ID NO: 1 (Bn-VAKGL) (Homo sapiens, UniProt P21333). The experiment in a line: FITC-NLX-based FLNA screening assay (inhibition of FITC-naloxone binding to Bn-VAKGL on streptavidin plates). As to conditions: read-out: Percent Binding Inhibition, FLNA-binding compound 0.01 μM; 10 nM FITC-NLX.
With `CC1CCC(C(C)C)C(OCC(O)CN2CCCCC2C)C1` (stereo not drawn) [Compound A0007], the inhibition at 0.01 µM is 39.2%.

On to `COc1ccc(S(=O)(=O)N2CCOC23CCN(C)CC3)cc1` [Compound C0088M], for which the inhibition at 0.01 µM amounted to 40.1%.

For the molecule `COCOc1ccc(C(=O)CC2c3c(cc4c(c3OC)OCO4)CC[N+]2(C)C)cc1C` (stereo not drawn) [Compound B0041], the inhibition at 0.01 µM was 44%.

With `Cc1ccccc1S(=O)(=O)N1CCC2(CC1)OCCN2S(=O)(=O)c1ccccc1C` [Compound C0015], the inhibition at 0.01 µM was 31.2%.

`CS(=O)(=O)c1ccc(S(=O)(=O)N2CCOC23CCNCC3)cc1` [Compound C0116M]: the inhibition at 0.01 µM is 53.9%.

For the molecule `CC(=O)c1ccc(S(=O)(=O)N2C(Cc3c[nH]cn3)C(=O)NC23CCNCC3)cc1` (stereo not drawn) [Compound C0119M], the inhibition at 0.01 µM was determined as 41.6%.

Staying with this assay, now noted: read-out: Percent Binding Inhibition, FLNA-binding compound 0.1 μM; 10 nM FITC-NLX.
For `CC1CCC(C(C)C)C(OCC(O)CN2CCCCC2C)C1` (stereo not drawn) [Compound A0007], the inhibition at 0.1 µM came out at 46.2%.

`COc1ccc(S(=O)(=O)N2CCOC23CCN(C)CC3)cc1` [Compound C0088M]: the inhibition at 0.1 µM turned out to be 52.4%.

As for `COCOc1ccc(C(=O)CC2c3c(cc4c(c3OC)OCO4)CC[N+]2(C)C)cc1C` (stereo not drawn) [Compound B0041], the inhibition at 0.1 µM was 46.8%.

As to `Cc1ccccc1S(=O)(=O)N1CCC2(CC1)OCCN2S(=O)(=O)c1ccccc1C` [Compound C0015], the inhibition at 0.1 µM was determined as 40.6%.

Consider `CS(=O)(=O)c1ccc(S(=O)(=O)N2CCOC23CCNCC3)cc1` [Compound C0116M], for which the inhibition at 0.1 µM was 60%.

As for `CC(=O)c1ccc(S(=O)(=O)N2C(Cc3c[nH]cn3)C(=O)NC23CCNCC3)cc1` (stereo not drawn) [Compound C0119M], the inhibition at 0.1 µM turned out to be 55.5%.

The assay is the same for the next values; noted with them: read-out: Percent Binding Inhibition, FLNA-binding compound 1 μM; 10 nM FITC-NLX.
Take `CC1CCC(C(C)C)C(OCC(O)CN2CCCCC2C)C1` (stereo not drawn) [Compound A0007]: the inhibition at 1 µM stood at 52.9%.

`COc1ccc(S(=O)(=O)N2CCOC23CCN(C)CC3)cc1` [Compound C0088M]: the inhibition at 1 µM worked out at 56.1%.

For the molecule `COCOc1ccc(C(=O)CC2c3c(cc4c(c3OC)OCO4)CC[N+]2(C)C)cc1C` (stereo not drawn) [Compound B0041], the inhibition at 1 µM amounted to 52.8%.

With `Cc1ccccc1S(=O)(=O)N1CCC2(CC1)OCCN2S(=O)(=O)c1ccccc1C` [Compound C0015], the inhibition at 1 µM was 45.5%.

In the case of `CS(=O)(=O)c1ccc(S(=O)(=O)N2CCOC23CCNCC3)cc1` [Compound C0116M], the inhibition at 1 µM was 62.9%.

In the case of `CC(=O)c1ccc(S(=O)(=O)N2C(Cc3c[nH]cn3)C(=O)NC23CCNCC3)cc1` (stereo not drawn) [Compound C0119M], the inhibition at 1 µM is 60%.

Another assay relates to mu opiate receptor (MOR). The experiment in a line: MOR agonist activity using [35S]GTPγS binding assay in striatal membranes. As to conditions: 0.1 μM compound. The class given is biochemical. In outline:
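Striatal membranes (200 μg) were preincubated 5 min at 30 °C in HEPES pH 7.5 with 100 mM NaCl, 1 mM MgCl2 and 0.5 nM [35S]GTPγS, then 5 min more with 0.1–10 μM compound. Gαo was immunoprecipitated and bound radioactivity counted by scintillation.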
Background: Binding of GTPγS marks nucleotide exchange on a G protein.
Consider `CC1CCC(C(C)C)C(OCC(O)CN2CCCCC2C)C1` (stereo not drawn) [Compound A0007], for which the “MOR agonist activity ([35S]GTPγS binding), FLNA-Binding Compound as Agonist 0.1 μM” value is 102.0%.

The assay is the same for the next values; noted with them: 0.1 μM compound relative to DAMGO.
On to `CC1CCC(C(C)C)C(OCC(O)CN2CCCCC2C)C1` (stereo not drawn) [Compound A0007], for which the “% DAMGO (0.1 μM)” value stood at 68.3%.

The assay is the same for the next values; noted with them: 1 μM compound.
In the case of `CC1CCC(C(C)C)C(OCC(O)CN2CCCCC2C)C1` (stereo not drawn) [Compound A0007], the “MOR agonist activity ([35S]GTPγS binding), FLNA-Binding Compound as Agonist 1 μM” value came out at 221.9%.

Staying with this assay, now noted: 1 μM compound + 1 μM β-funaltrexamine.
On to `CC1CCC(C(C)C)C(OCC(O)CN2CCCCC2C)C1` (stereo not drawn) [Compound A0007], for which the “MOR agonist activity ([35S]GTPγS binding), FLNA-Binding Compound as Agonist 1 μM + BFNA” value is recorded as 40.4%.

The assay is the same for the next values; noted with them: 1 μM compound + BFNA relative to DAMGO + BFNA.
Turning to `CC1CCC(C(C)C)C(OCC(O)CN2CCCCC2C)C1` (stereo not drawn) [Compound A0007], the “% DAMGO + BFNA” value was found to be 152.5%.

Still in this assay, the particulars now being: 1 μM compound relative to DAMGO.
Consider `CC1CCC(C(C)C)C(OCC(O)CN2CCCCC2C)C1` (stereo not drawn) [Compound A0007], for which the “% DAMGO (1 μM)” value stood at 96.4%.

Still in this assay, the particulars now being: Series B; 0.1 μM compound, relative to DAMGO.
On to `COCOc1ccc(C(=O)CC2c3c(cc4c(c3OC)OCO4)CC[N+]2(C)C)cc1C` (stereo not drawn) [Compound B0041], for which the “% DAMGO (0.1 μM)” value came out at 39.3%.

Still in this assay, the particulars now being: Series B; 0.1 μM compound; [35S]GTPγS binding to Gαo, striatal membranes.
For the molecule `COCOc1ccc(C(=O)CC2c3c(cc4c(c3OC)OCO4)CC[N+]2(C)C)cc1C` (stereo not drawn) [Compound B0041], the “MOR agonist activity, percent [35S]GTPγS binding at the stated compound concentration” value (“MOR agonist activity, percent” below) worked out at 61.6%.

The assay is the same for the next values; noted with them: Series B; 1 μM compound + 1 μM β-FNA.
As for `COCOc1ccc(C(=O)CC2c3c(cc4c(c3OC)OCO4)CC[N+]2(C)C)cc1C` (stereo not drawn) [Compound B0041], the “MOR agonist activity, percent” value is listed as 41.9%.

Staying with this assay, now noted: Series B; 1 μM compound + β-FNA, relative to DAMGO + BFNA.
On to `COCOc1ccc(C(=O)CC2c3c(cc4c(c3OC)OCO4)CC[N+]2(C)C)cc1C` (stereo not drawn) [Compound B0041], for which the “% DAMGO + BFNA” value came to 128.5%.

Staying with this assay, now noted: Series B; 1 μM compound, relative to DAMGO.
`COCOc1ccc(C(=O)CC2c3c(cc4c(c3OC)OCO4)CC[N+]2(C)C)cc1C` (stereo not drawn) [Compound B0041]: the “% DAMGO (1 μM)” value was found to be 47.2%.

Staying with this assay, now noted: Series B; 1 μM compound; [35S]GTPγS binding to Gαo, striatal membranes.
Consider `COCOc1ccc(C(=O)CC2c3c(cc4c(c3OC)OCO4)CC[N+]2(C)C)cc1C` (stereo not drawn) [Compound B0041], for which the “MOR agonist activity, percent” value is reported as 109.3%.

The assay is the same for the next values; noted with them: Series C-1; 0.1 μM compound, relative to DAMGO.
For the molecule `Cc1ccccc1S(=O)(=O)N1CCC2(CC1)OCCN2S(=O)(=O)c1ccccc1C` [Compound C0015], the “% DAMGO (0.1 μM)” value was found to be 78.5%.

The assay is the same for the next values; noted with them: Series C-1; 0.1 μM compound; [35S]GTPγS binding to Gαo, striatal membranes.
In the case of `Cc1ccccc1S(=O)(=O)N1CCC2(CC1)OCCN2S(=O)(=O)c1ccccc1C` [Compound C0015], the “Concentration of FLNA-Binding Compound as Agonist 0.1 μM” value is listed as 138.7%.

The same assay, now with this note: Series C-1; 1 μM compound + 1 μM β-FNA.
For `Cc1ccccc1S(=O)(=O)N1CCC2(CC1)OCCN2S(=O)(=O)c1ccccc1C` [Compound C0015], the “Concentration of FLNA-Binding Compound as Agonist 1 μM + BFNA” value worked out at 126.8%.

The same assay, now with this note: Series C-1; 1 μM compound + β-FNA, relative to DAMGO + BFNA.
As to `Cc1ccccc1S(=O)(=O)N1CCC2(CC1)OCCN2S(=O)(=O)c1ccccc1C` [Compound C0015], the “% DAMGO + BFNA” value was 193.0%.

Still in this assay, the particulars now being: Series C-1; 1 μM compound, relative to DAMGO.
`Cc1ccccc1S(=O)(=O)N1CCC2(CC1)OCCN2S(=O)(=O)c1ccccc1C` [Compound C0015]: the “% DAMGO (1 μM)” value amounted to 78.9%.

The assay is the same for the next values; noted with them: Series C-1; 1 μM compound; [35S]GTPγS binding to Gαo, striatal membranes.
Turning to `Cc1ccccc1S(=O)(=O)N1CCC2(CC1)OCCN2S(=O)(=O)c1ccccc1C` [Compound C0015], the “Concentration of FLNA-Binding Compound as Agonist 1 μM” value came to 204.7%.

The same assay, now with this note: Series C-2; 0.1 μM compound, relative to DAMGO.
As for `COc1ccc(S(=O)(=O)N2CCOC23CCN(C)CC3)cc1` [Compound C0088M], the “% DAMGO (0.1 μM)” value was 160.5%.

`CS(=O)(=O)c1ccc(S(=O)(=O)N2CCOC23CCNCC3)cc1` [Compound C0116M]: the “% DAMGO (0.1 μM)” value was determined as 136.6%.

Take `CC(=O)c1ccc(S(=O)(=O)N2C(Cc3c[nH]cn3)C(=O)NC23CCNCC3)cc1` (stereo not drawn) [Compound C0119M]: the “% DAMGO (0.1 μM)” value amounted to 71.9%.

The same assay, now with this note: Series C-2; 0.1 μM compound; [35S]GTPγS binding to Gαo, striatal membranes.
For the molecule `COc1ccc(S(=O)(=O)N2CCOC23CCN(C)CC3)cc1` [Compound C0088M], the “MOR agonist activity, percent” value was 276.3%.

Regarding `CS(=O)(=O)c1ccc(S(=O)(=O)N2CCOC23CCNCC3)cc1` [Compound C0116M], the “MOR agonist activity, percent” value was 258.4%.

Take `CC(=O)c1ccc(S(=O)(=O)N2C(Cc3c[nH]cn3)C(=O)NC23CCNCC3)cc1` (stereo not drawn) [Compound C0119M]: the “MOR agonist activity, percent” value is 105.7%.

The assay is the same for the next values; noted with them: Series C-2; 1 μM compound + 1 μM β-FNA.
In the case of `COc1ccc(S(=O)(=O)N2CCOC23CCN(C)CC3)cc1` [Compound C0088M], the “MOR agonist activity, percent” value is 177.1%.

On to `CS(=O)(=O)c1ccc(S(=O)(=O)N2CCOC23CCNCC3)cc1` [Compound C0116M], for which the “MOR agonist activity, percent” value is on record as 152.0%.

For `CC(=O)c1ccc(S(=O)(=O)N2C(Cc3c[nH]cn3)C(=O)NC23CCNCC3)cc1` (stereo not drawn) [Compound C0119M], the “MOR agonist activity, percent” value came out at 35.1%.

Staying with this assay, now noted: Series C-2; 1 μM compound + β-FNA, relative to DAMGO + BFNA.
As to `COc1ccc(S(=O)(=O)N2CCOC23CCN(C)CC3)cc1` [Compound C0088M], the “% DAMGO + BFNA” value turned out to be 513.3%.

For `CS(=O)(=O)c1ccc(S(=O)(=O)N2CCOC23CCNCC3)cc1` [Compound C0116M], the “% DAMGO + BFNA” value came out at 313.4%.

In the case of `CC(=O)c1ccc(S(=O)(=O)N2C(Cc3c[nH]cn3)C(=O)NC23CCNCC3)cc1` (stereo not drawn) [Compound C0119M], the “% DAMGO + BFNA” value is on record as 89.3%.

Staying with this assay, now noted: Series C-2; 1 μM compound, relative to DAMGO.
Consider `COc1ccc(S(=O)(=O)N2CCOC23CCN(C)CC3)cc1` [Compound C0088M], for which the “% DAMGO (1 μM)” value worked out at 161.7%.

Take `CS(=O)(=O)c1ccc(S(=O)(=O)N2CCOC23CCNCC3)cc1` [Compound C0116M]: the “% DAMGO (1 μM)” value was found to be 122.0%.

Regarding `CC(=O)c1ccc(S(=O)(=O)N2C(Cc3c[nH]cn3)C(=O)NC23CCNCC3)cc1` (stereo not drawn) [Compound C0119M], the “% DAMGO (1 μM)” value came out at 83.0%.

Still in this assay, the particulars now being: Series C-2; 1 μM compound; [35S]GTPγS binding to Gαo, striatal membranes.
As for `COc1ccc(S(=O)(=O)N2CCOC23CCN(C)CC3)cc1` [Compound C0088M], the “MOR agonist activity, percent” value is reported as 355.3%.

Consider `CS(=O)(=O)c1ccc(S(=O)(=O)N2CCOC23CCNCC3)cc1` [Compound C0116M], for which the “MOR agonist activity, percent” value was 302.8%.

As for `CC(=O)c1ccc(S(=O)(=O)N2C(Cc3c[nH]cn3)C(=O)NC23CCNCC3)cc1` (stereo not drawn) [Compound C0119M], the “MOR agonist activity, percent” value turned out to be 167.8%.

As a reminder, the inhibition is the change of the read-out against control, counted positive when it falls.
